Consider 3 compounds from patent publication US20240360146A1, “BRUTON'S TYROSINE KINASE AND MUTANT DEGRADER, COMPOSITION AND APPLICATION THEREOF” (HANGZHOU HEALZEN THERAPEUTICS CO., LTD., priority 2021, published 2024).

One data set deals with OCI-LY10 cells. Kind of data set: Inhibitory activity on OCI-LY10 cell proliferation (MTS). The conditions noted are these: Homo sapiens, 72 h. The data set is classed as cell-based. Summed up:
(§1)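 Cells seeded at 10000/well, treated with compounds from 1000 nM (4-fold, 8 points) for 72 h (OCI-LY10) or 168 h (Mino) at 37° C. MTS added for 2 h, stopped with SDS, absorbance read at 490 and 650 nm; IC50 from dose-response fit.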

A short description of data set [1]: Beagle dog absorption test (PK in dogs). Format: in vivo. To be noted: plasma, po, intragastric, 10 mg/kg. The protocol:
Beagle dogs were used as experimental animals, and drugs were administered intragastrically at 10 mg/kg. The blood collection time points for intragastric administration were 0, 0.25, 0.5, 1, 2, 4, 6, 8, 10, 12, and 24 h. 1.0 mL of blood was collected from the jugular vein, placed in an EDTAK2 centrifuge tube, and placed on an ice bath, centrifuged at 5000 rpm and 4° C. for 10 min to obtain the supernatant, i.e., plasma. 0.1 ml of the plasma was taken for analysis by LC-MS/MS.

The nature of data set [2]: Mouse absorption test (pharmacokinetic properties in mice). The data set is classed as in vivo. The conditions noted are these: intragastric, 30 mg/kg. The protocol:
[…] The blood collection time points for intragastric administration were 0.25, 0.5, 1, 2, 4, 6, 8, and 24 h. 0.5 mL of blood was taken with a capillary tube from the orbit, and placed in an EP tube containing EDTA anticoagulant. The EP tube was shaken gently for mixing uniformly, and centrifuged at 3500 rpm and 4° C. for 10 min. The supernatant, i.e., plasma, was taken. Analysis was performed using LC-MS/MS.

Data set [3] is described as follows: Stability of compounds in human liver microsome. Format: in vitro ADME. To be noted: human liver microsomes, NADPH, 37° C., sampling 0-120 min; read-out: Human liver microsome T1/2. Summed up: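 Compound incubated at 37° C with human liver microsomes (1 mg in 1 mL PBS) plus NADPH. Samples taken at 0, 15, 30, 60 and 120 min, quenched into internal standard solution and analysed by LC/MS; metabolism calculated from peak area.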
In general terms: Microsomes from liver hold many membrane-bound enzymes, among them those of drug oxidation.

In another data set the target is T1, BTK (Homo sapiens, UniProt Q06187).
T1 construct: endogenous in cells; host or cells: Mino cells
T1 sequence (Q06187 whole entry): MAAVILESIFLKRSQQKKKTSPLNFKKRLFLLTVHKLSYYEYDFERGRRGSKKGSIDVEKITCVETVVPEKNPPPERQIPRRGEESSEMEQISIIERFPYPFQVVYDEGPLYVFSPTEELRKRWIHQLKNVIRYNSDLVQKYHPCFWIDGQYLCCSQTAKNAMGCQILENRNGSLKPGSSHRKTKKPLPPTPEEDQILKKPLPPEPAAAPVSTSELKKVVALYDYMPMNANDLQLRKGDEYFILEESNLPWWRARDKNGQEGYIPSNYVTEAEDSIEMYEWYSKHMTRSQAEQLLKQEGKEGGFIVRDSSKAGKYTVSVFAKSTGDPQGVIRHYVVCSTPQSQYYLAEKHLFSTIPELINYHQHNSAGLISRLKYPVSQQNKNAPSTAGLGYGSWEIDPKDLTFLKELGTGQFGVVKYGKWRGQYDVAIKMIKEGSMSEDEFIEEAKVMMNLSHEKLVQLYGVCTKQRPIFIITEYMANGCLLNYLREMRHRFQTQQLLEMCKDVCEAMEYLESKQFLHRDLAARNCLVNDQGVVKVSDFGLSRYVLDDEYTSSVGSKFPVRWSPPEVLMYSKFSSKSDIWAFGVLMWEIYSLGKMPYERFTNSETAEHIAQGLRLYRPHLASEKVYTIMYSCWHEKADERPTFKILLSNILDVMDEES
Kind of data set: BTK degradation activity test in Mino cells. To be noted: 16 h incubation, Western blot or Elisa. The data set is classed as cell-based. Summed up: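 Mino cells treated with a concentration series of compound for 16 h, then lysed; total protein by BCA. BTK quantified by Western blot or ELISA, degradation rate calculated against blank control, and DC50 fitted from the degradation curve.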
A general note: Immunoblotting shows a protein as a band on a membrane.

The subject of another data set is Mino cells. Kind of data set: Inhibitory activity on Mino cell proliferation (MTS). The data set is classed as cell-based. To be noted: Homo sapiens, 168 h incubation. The method in brief:
as §1

Data set [4] has as its system OCL-LY10 transplanted tumors. The data set is described as follows: Chronic efficacy test, OCL-LY10 subcutaneous transplanted tumor model. Format: in vivo. To be noted: NOD/SCID mice, intragastric 10 mg/kg, 3 weeks. The protocol:
NOD/SCID mice were subcutaneously inoculated with OCL-LY10 cells to establish a tumor model. When the tumors grew to about 100 mm^3, the mice were administered with drugs in groups. The mode of administration was as follows: the test compound was administered intragastrically at 10 mg/kg; The changes in body weight and tumor size of the mice were measured twice per week. After 3 weeks, the mice were sacrificed by cervical dislocation, and the efficacy of the compounds on transplanted tumors in OCL-LY10 mice was examined.

The subject of the next data set is B cell activation. Kind of data set: Test of inhibition of B cell activation in PBMC (Anti-Human IgM stimulation, flow cytometry). The data set is classed as cell-based. To be noted: Anti-Human IgM 50 μg/mL, 18 h. How it is done: The PBMC cell cryopreservation liquid was resuspended in 1640 complete culture medium to an appropriate concentration, and inoculated into a 96-well round-bottom plate at 15×10^4 cells/90 μL/well, and the culture plate was placed in a CO2 incubator for incubation.
The compounds to be tested were formulated into 10 mM stock solutions which were then fold-serially diluted with DMSO, and then diluted with 1640 complete culture liquid to make the concentration 100 times of the final concentration. The compound diluent was added into the cell solution in each well at 1 μL/well and shaken gently. 2 duplicate wells were set up for each concentration. The dosed cell plate was placed in a 37° C. incubator with 5% carbon dioxide and incubated for 1 h.
3. The dosed cell culture plate was taken and 10 μL of Anti-Human IgM-UNLB was added into the well corresponding to the compound to be tested; in 2 groups of cell blank wells, only 10 μL of Anti-Human IgM-UNLB was added; and in 3 groups of cell blank wells, no reagents and antibodies were added. The final concentration of Anti-Human IgM-UNLB was 50 μg/mL.
4. The loaded cell culture plate was placed in a 37° C. incubator with 5% carbon dioxide and incubated for 18 h. Total system: 90 μL PBMC+1 μL compound+10 μL Anti-Human IgM-UNLB
5. Samples were collected and stained, and the cells were analyzed using flow cytometry to obtain data. (When analyzed using flow cytometry, lymphocytes were gated).

A further data set deals with T2, BTK-C481S (Homo sapiens, UniProt Q06187, C481S).
T2 construct: expressed in transfected cells; host or cells: HEK293 OE BTK-C481S (overexpressing) cell line
T2 sequence (Q06187 whole entry C481S): as the sequence (Q06187 whole entry) above, with C481S counted along it
Kind of data set: BTK-C481S degradation activity test in HEK293 OE BTK-C481S cells. The data set is classed as cell-based. To be noted: 24 h incubation, Western blot or Elisa. How it is done:
HEK293 OE BTK-C481S cell line cells were seeded at 500,000 to 1,000,000 cells/well in a 6-well plate. The compounds were diluted to different concentrations and added to the plate, and after 24 h of incubation, the cells were harvested. After lysing the cells, the total protein concentration in each well was determined using the BCA method. The amount of BTK-C481S was determined using Western blot or Elisa method. The amount of undegraded BTKC481S protein at each drug concentration was compared with the amount of BTKC481S protein in the blank control group to calculate the degradation rate. The degradation curve was drawn based on the degradation rate at each concentration, and the half degradation concentration (DC50) was calculated by fitting.

`CN1CCN([C@@H]2CCCN(c3nnc(C(N)=O)c(Nc4ccc(N5CCN(C[C@H]6CCN(c7ccc8c(c7)C(=O)N(C7CCC(=O)NC7=O)C8=O)C6)CC5)c(F)c4)n3)C2)C1=O` (stereo partly drawn) [Compound 132, 5-((4-(4-(((3R)-1-(2-(2,6-dioxopiperidin-3-yl)-1,3-dioxoisoindolin-5-yl)pyrrolidin-3-yl)methyl)piperazin-1-yl)-3-fluorophenyl)amino)-3-((R)-3-(3-methyl-2-oxoimidazolin-1-yl)piperidin-1-yl)-1,2,4-triazin-6-carboxamide]: the IC50 (commonly the concentration needed to halve the response being measured) in the data set on OCI-LY10 cells is under 1 nM; with Mino cells, 2.55 nM. In addition, the area under the curve (AUC) (usually the area under the concentration-time curve, a measure of exposure) in [1] amounted to 1690 ng·h/mL. In data set [2] (DNAUC = AUC/Dose), this compound returned a DNAUC of 2430 ng/ml*h/mpk. The highest concentration (Cmax) (in general, the maximum level reached in the sampled fluid or tissue) in [2] (mouse, plasma, po) worked out at 7800 ng/mL. The half-life at 0.97 µg/mL in [3] was over 30 min. Also, on BTK, the DC50 (as a rule, the midpoint of the concentration-degradation curve) was under 1 nM.
For the compound `Cc1cc(N2CCC(CN3CCN(c4ccc(Nc5nc(N6CCC[C@@H](N7CCN(C)C7=O)C6)nnc5C(N)=O)cc4F)CC3)CC2)ccc1N1CCC(=O)NC1=O` [Compound 257, (R)-5-((4-(4-((1-(4-(2,4-dioxotetrahydropyrimidin-1(2H)-yl)-3-methylphenyl)piperidin-4-yl)methyl)piperazin-1-yl)-3-fluorophenyl)amino)-3-(3-(3-methyl-2-oxoimidazolidin-1-yl)piperidin-1-yl)-1,2,4-triazin-6-carboxamide], the “TGI (%)” value in data set [4] was determined as 98.74%. Moreover, the IC50 with OCI-LY10 cells is 0.12 nM; in the data set on Mino cells it was under 0.26 nM. In data set [1], this compound came in with an AUC of 6590 ng·h/mL. Moreover, the half-life at 0.97 µg/mL in data set [3] was over 30 min. Moreover, the 50% degradation concentration (DC50) is under 1 nM on BTK and under 10 nM at BTK-C481S. Moreover, the Inhibition ratio % in the data set on B cell activation (concentration 0.16 nM) and in the data set on B cell activation (concentration 0.80 nM) was 100% throughout.
With `NC(=O)c1ncc(N2CCCCC2)nc1Nc1ccc(C2CCN(C[C@H]3CCN(c4ccc5c(c4)C(=O)N(C4CCC(=O)NC4=O)C5=O)C3)CC2)cc1` (some centres unmarked) [Compound c, reference compound], the “TGI (%)” value in data set [4] amounted to 67.59%. This compound also yielded an AUC in [1] of 246 ng·h/mL. Also, the Inhibition ratio % in the data set on B cell activation (concentration 0.16 nM) was determined as 10.2%; in the data set on B cell activation (concentration 0.80 nM), 16.3%.
